Source: patent publication US7125986B2, “Penicillanic acid derivative compounds and methods of making” (Southern Methodist University Foundation for Research, priority 1997, dated 2006)
Structures can show the parent of a compound that is named as a salt. Where two headings read alike, the source gives them in different places.

Legend:
[1] = target: β-lactamase of Enterobacter cloacae P99 (Enterobacter cloacae, UniProt P05364); test: β-lactamase inhibition, nitrocefin hydrolysis (P99); assay type: biochemical; details: for β-lactamase inhibiting activity greater than compound 9 by a factor, P99: factor relative to compound 9
Procedure: (§1) The IC50 value of each compound was determined as follows. Following a 10 minute incubation of a dilute solution of enzyme (2.56 nM) and inhibitor (<0.64 μM), a 50 μL aliquot of the incubation mixture was further diluted into 1 mL nitrocefin (a substrate) solution, and the rate of hydrolysis was measured during a 1 minute period by monitoring the absorbance of nitrocefin as a function of time.

[2] = target: TEM-1 β-lactamase (Escherichia coli, UniProt P62593); test: β-lactamase inhibition, nitrocefin hydrolysis (TEM-1); assay type: biochemical
Procedure: as §1

[3] = 10 minute incubation of enzyme (2.56 nM) and inhibitor, nitrocefin substrate, read-out: IC50 (uM) Ent. cloacae P99
[4] = 10 minute incubation of enzyme (2.56 nM) and inhibitor, nitrocefin substrate, read-out: IC50 (uM) TEM-1

Chain of TEM-1 β-lactamase (P62593 24-286 limits assumed): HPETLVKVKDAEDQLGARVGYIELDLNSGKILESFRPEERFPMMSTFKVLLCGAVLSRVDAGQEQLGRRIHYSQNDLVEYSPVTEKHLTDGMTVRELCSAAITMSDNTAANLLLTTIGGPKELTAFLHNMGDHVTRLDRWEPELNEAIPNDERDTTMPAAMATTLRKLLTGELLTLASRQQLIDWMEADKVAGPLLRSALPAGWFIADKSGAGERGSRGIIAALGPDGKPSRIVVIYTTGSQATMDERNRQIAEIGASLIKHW
Chain of β-lactamase of Enterobacter cloacae P99 (P05364 21-381): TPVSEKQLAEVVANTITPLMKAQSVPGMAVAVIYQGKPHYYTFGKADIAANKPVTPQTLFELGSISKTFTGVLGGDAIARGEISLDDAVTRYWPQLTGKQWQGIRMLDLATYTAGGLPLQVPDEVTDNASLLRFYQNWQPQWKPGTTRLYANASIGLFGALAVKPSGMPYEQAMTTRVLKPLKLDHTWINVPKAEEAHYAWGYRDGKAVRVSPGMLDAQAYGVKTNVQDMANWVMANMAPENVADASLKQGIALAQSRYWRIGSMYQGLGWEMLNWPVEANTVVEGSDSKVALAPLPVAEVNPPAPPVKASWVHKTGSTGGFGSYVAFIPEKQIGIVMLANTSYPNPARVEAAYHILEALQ

Compound	IC50 [1, 3] [µM]	IC50 [2, 4] [µM]	other results
C[C@]1(C=CC#N)[C@H](C(=O)O)N2C(=O)/C(=C/C(=O)O)[C@H]2S1(=O)=O (mixture of isomers) [Compound 17, Disodium Salt of 2β-[(E/Z)-(cyanoethenyl)]-6-[(Z)-carboxymethylene]-penicillinate 1,1-dioxide]	6.76	–	–
CC(=O)OC[C@@]1(C)[C@H](C(=O)O)N2C(=O)/C(=C/C(=O)O)[C@H]2S1(=O)=O [Compound 8a, Disodium salt of 2β-(acetoxymethyl)-6-[(Z)-carboxymethylene]-penicillinic acid-1,1-dioxide]	0.383	0.213	β-lactamase inhibiting activity greater than compound 9 by a factor, P99 [1]: ~2
CC1(COC(=O)CCl)C(C(=O)O)N2C(=O)C(=CC(=O)O)C2S1(=O)=O (stereo not drawn) [Compound 8b, Disodium salt of 2β-(chloroacetoxymethyl)-6-[(Z)-carboxymethylene]-penicillinate 1,1-dioxide]	–	0.19	–
C[C@]1(COC=O)[C@H](C(=O)O)N2C(=O)/C(=C/C(=O)O)[C@H]2S1(=O)=O [Compound 8c, Disodium salt of 2β-(formyloxymethyl)-6-[(Z)-carboxymethylene]-penicillinate 1,1-dioxide]	0.3	–	β-lactamase inhibiting activity greater than compound 9 by a factor, P99 [1]: ~2
C[C@]1(COC(=O)Cc2ccccc2)[C@H](C(=O)O)N2C(=O)/C(=C/C(=O)O)[C@H]2S1(=O)=O [Compound 8d, Disodium salt of 2β-(phenylacetoxymethyl)-6-[(Z)-carboxymethylene]-penicillinate 1,1-dioxide]	–	–	IC50 [1]: 0.54 µM; IC50 [2]: 0.015 µM
COC(=O)C=C1C(=O)N2C(C(=O)O)C(C)(COC(C)=O)S(=O)(=O)C12 (stereo not drawn) [Compound 8e, Sodium salt of 2β-(acetoxymethyl)-6-[(Z)-(methoxycarbonyl)methylene]-penicillinic acid 1,1 dioxide]	2.66	–	–
Cn1nnnc1SCC(=O)OCC1(C)C(C(=O)O)N2C(=O)C(=CC(=O)O)C2S1(=O)=O (stereo not drawn) [Compound 8g, Disodium salt of 2β-[[(1-methyl-1H-tetrazol-5-yl)thio]acetoxymethyl]-6-[(Z)-carboxymethylene]penicillinate 1,1-dioxide]	0.64	0.23	–
COC(=O)/C=C1/C(=O)N2[C@@H](C(=O)O)[C@](C)(COC(=O)CSc3nnnn3C)S(=O)(=O)[C@H]12 [Compound 8h, Sodium salt of 2β-[[(1-methyl-1H-tetrazol-5-yl)thio]acetoxymethyl]-6-[(Z)-(methoxycarbonyl)methylene]penicillinate 1,1-dioxide]	3.69	–	–
CC1(COC(=O)Cc2ccc(O)c(O)c2)C(C(=O)O)N2C(=O)C(=CC(=O)O)C2S1(=O)=O (stereo not drawn) [Compound 8i, Disodium Salt of 2β-[(3′,4′-Dihydroxyphenyl)acetoxy]methyl-6-[(Z)-carboxymethylene]-1,1-dioxopenicillinate]	0.37	–	–
CC(C)(C)OC(=O)/C=C1/C(=O)N2[C@@H](C(=O)O)[C@](C)(CCl)S(=O)(=O)[C@H]12 [Compound 12a, Sodium salt of 2β-(chloromethyl)-6-[(Z)-(t-butoxycarbonyl)methylene]-penicillinic acid 1,1 dioxide]	7.62	39	–
COC(=O)/C=C1/C(=O)N2[C@@H](C(=O)O)[C@](C)(CCl)S(=O)(=O)[C@H]12 [Compound 12b, Sodium salt of 2β-(chloromethyl)-6-[(Z)-(methoxycarbonyl)methylene]-penicillanic acid 1,1 dioxide]	6.96	–	–
CC1(CCl)C(C(=O)O)N2C(=O)/C(=C/C(=O)O)C2S1(=O)=O (stereo not drawn) [Compound 12c, Disodium salt of 2β-(chloromethyl)-6-[(Z)-carboxymethylene]penicillinate 1,1-dioxide]	105	120	–
CC(=O)OCC1(C)C(C(=O)O)N2C(=O)C(=Cc3ccccn3)C2S1(=O)=O (stereo not drawn) [Compound 29a, Sodium 2β-(acetoxymethyl)-1,1-dioxo-6-[(Z)-2′-pyridylmethylene]penicillinate]	0.062	0.004	β-lactamase inhibiting activity against P99 (in words) [1]: potent; β-lactamase inhibiting activity against TEM-1 (in words) [2]: potent
C[C@]1(COC(=O)Cc2ccccc2)[C@H](C(=O)O)N2C(=O)/C(=C/c3ccccn3)[C@H]2S1(=O)=O [Compound 29b, Sodium 1,1-Dioxo-2β-(phenylacetoxy)methyl-6-[(Z)-2′-pyridylmethylene]penicillinate]	–	–	β-lactamase inhibiting activity against P99 (in words) [1]: potent; IC50 [2]: 0.39 µM; β-lactamase inhibiting activity against TEM-1 (in words) [2]: potent
